# Laboratory results published in patent US20100311714A1, “1H-IMIDAZO[4,5-c]QUINOLINONE COMPOUNDS” (priority 2009, published 2010).
# Tested on: PKB Ser473 phosphorylation in Rat1-myr-HA-p110 beta cells
# Experiment: Reverse protein array, PKB Ser473 phosphorylation in Rat1-myr-HA-p110 beta cells
# Type: cell-based
# Details: Rattus norvegicus, 0.5 h, 30 minutes compound incubation, read-out: p-PKB/IC50_beta
row,SMILES,IC50 [nM]
1,"CNc1ncc(-c2ccc3ncc4c(c3c2)n(-c2ccc(N3CC[C@H](O)C3)nc2C)c(=O)n4C)cc1F [Example 32.2, 8-(5-Fluoro-6-methylamino-pyridin-3-yl)-1-[6-((S)-3-hydroxy-pyrrolidin-1-yl)-2-methyl-pyridin-3-yl]-3-methyl-1,3-dihydro-imidazo[4,5-c]quinolin-2-one]",15.2
2,"CCOc1ccc(-c2ccc3ncc4c(c3c2)n(-c2ccc(N3CCNCC3)nc2OC)c(=O)n4C)cn1 [Example 9.1, 8-(6-Ethoxy-pyridin-3-yl)-1-(2-methoxy-6-piperazin-1-yl-pyridin-3-yl)-3-methyl-1,3-dihydro-imidazo[4,5-c]quinolin-2-one]",33.3
3,"Cc1nc(N(C)CCO)ccc1-n1c(=O)n(C)c2cnc3ccc(-c4cnc(N)c(C(F)(F)F)c4)cc3c21 [Example 26.1, 8-(6-Amino-5-trifluoromethyl-pyridin-3-yl)-1-{6-[(2-hydroxy-ethyl)-methyl-amino]-2-methyl-pyridin-3-yl}-3-methyl-1,3-dihydro-imidazo[4,5-c]quinolin-2-one]",< 4.57
4,"COc1ccc(-c2ccc3ncc4c(c3c2)n(-c2cccnc2C)c(=O)n4C)cn1 [Example 2.12, 8-(6-Methoxy-pyridin-3-yl)-3-methyl-1-(2-methyl-pyridin-3-yl)-1,3-dihydro-imidazo[4,5-c]quinolin-2-one]",19.8
5,"Cc1nc(F)ccc1-n1c(=O)n(C)c2cnc3ccc(-c4cncc(C(C)(C)O)c4)cc3c21 [Example 7.8, 1-(6-Fluoro-2-methyl-pyridin-3-yl)-8-[5-(1-hydroxy-1-methyl-ethyl)-pyridin-3-yl]-3-methyl-1,3-dihydro-imidazo[4,5-c]quinolin-2-one]",68.6
6,"Cc1nc(N2CCC2)ccc1-n1c(=O)n(C)c2cnc3ccc(-c4cncc(C(C)(C)O)c4)cc3c21 [Example 23.3, 1-(6-Azetidin-1-yl-2-methyl-pyridin-3-yl)-8-[5-(1-hydroxy-1-methyl-ethyl)-pyridin-3-yl]-3-methyl-1,3-dihydro-imidazo[4,5-c]quinolin-2-one]",23.1
7,"COc1ncc(-c2ccc3ncc4c(c3c2)n(-c2ccc(N3CC[C@H](O)C3)nc2C)c(=O)n4C)c(OC)n1 [Example 32.3, 8-(2,4-Dimethoxy-pyrimidin-5-yl)-1-[6-((S)-3-hydroxy-pyrrolidin-1-yl)-2-methyl-pyridin-3-yl]-3-methyl-1,3-dihydro-imidazo[4,5-c]quinolin-2-one]",80
8,"CCOc1ccc(-c2ccc3ncc4c(c3c2)n(-c2ccc(F)nc2C)c(=O)n4C)cn1 [Example 7.3, 8-(6-Ethoxy-pyridin-3-yl)-1-(6-fluoro-2-methyl-pyridin-3-yl)-3-methyl-1,3-dihydro-imidazo[4,5-c]quinolin-2-one]",43.8
9,"Cc1nc(N2CC[C@H](O)C2)ccc1-n1c(=O)n(C)c2cnc3ccc(-c4cncc(OC(C)C)c4)cc3c21 [Example 32.8, 1-[6-((S)-3-Hydroxy-pyrrolidin-1-yl)-2-methyl-pyridin-3-yl]-8-(5-isopropoxy-pyridin-3-yl)-3-methyl-1,3-dihydro-imidazo[4,5-c]quinolin-2-one]",63.7
10,"Cc1ncccc1-n1c(=O)n(C)c2cnc3ccc(-c4ccc(OCCCN(C)C)nc4)cc3c21 [Example 2.10, 8-[6-(3-Dimethylamino-propoxy)-pyridin-3-yl]-3-methyl-1-(2-methyl-pyridin-3-yl)-1,3-dihydro-imidazo[4,5-c]quinolin-2-one]",84.2
11,"COc1ncccc1-n1c(=O)n(C)c2cnc3ccc(-c4ccc(C(N)=O)cc4)cc3c21 [Example 1.6, 4-[1-(2-Methoxy-pyridin-3-yl)-3-methyl-2-oxo-2,3-dihydro-1H-imidazo[4,5-c]quinolin-8-yl]-benzamide]",16.9
12,"CCNc1ncc(-c2ccc3ncc4c(c3c2)n(-c2ccc(N3CC[C@@H](O)C3)nc2C)c(=O)n4C)cc1C(F)(F)F [Example 34.2, 8-(6-Ethylamino-5-trifluoromethyl-pyridin-3-yl)-1-[6-((R)-3-hydroxy-pyrrolidin-1-yl)-2-methyl-pyridin-3-yl]-3-methyl-1,3-dihydro-imidazo[4,5-c]quinolin-2-one]",15.2
13,"CNc1ncc(-c2ccc3ncc4c(c3c2)n(-c2ccc(N3CC(F)(F)C3)nc2C)c(=O)n4C)cn1 [Example 24.1, 1-[6-(3,3-Difluoro-azetidin-1-yl)-2-methyl-pyridin-3-yl]-3-methyl-8-(2-methylamino-pyrimidin-5-yl)-1,3-dihydro-imidazo[4,5-c]quinolin-2-one]",12.7
14,"CCNc1cc(-c2ccc3ncc4c(c3c2)n(-c2ccc(N3CC(O)C3)nc2C)c(=O)n4C)cnc1CO [Example 29.2, 8-(5-Ethylamino-6-hydroxymethyl-pyridin-3-yl)-1-[6-(3-hydroxy-azetidin-1-yl)-2-methyl-pyridin-3-yl]-3-methyl-1,3-dihydro-imidazo[4,5-c]quinolin-2-one]",32.7
15,"Cc1nc(N2CCN(C)C(=O)C2)ccc1-n1c(=O)n(C)c2cnc3ccc(-c4cnc(N)c(C(F)(F)F)c4)cc3c21 [Example 21.1, 8-(6-Amino-5-trifluoromethyl-pyridin-3-yl)-3-methyl-1-[2-methyl-6-(4-methyl-3-oxo-piperazin-1-yl)-pyridin-3-yl]-1,3-dihydro-imidazo[4,5-c]quinolin-2-one]",5.3
16,"CNc1ncc(-c2ccc3ncc4c(c3c2)n(-c2ccc(N3CC[C@H](O)C3)nc2C)c(=O)n4C)cc1C(F)(F)F [Example 32.5, 1-[6-((S)-3-Hydroxy-pyrrolidin-1-yl)-2-methyl-pyridin-3-yl]-3-methyl-8-(6-methylamino-5-trifluoromethyl-pyridin-3-yl)-1,3-dihydro-imidazo[4,5-c]quinolin-2-one]",11
17,"CCOc1ncc(-c2ccc3ncc4c(c3c2)n(-c2cccnc2C)c(=O)n4C)cn1 [Example 2.5, 8-(2-Ethoxy-pyrimidin-5-yl)-3-methyl-1-(2-methyl-pyridin-3-yl)-1,3-dihydro-imidazo[4,5-c]quinolin-2-one]",53.8
18,"COc1ccc(-c2ccc3ncc4c(c3c2)n(-c2ncccc2C)c(=O)n4C)cc1OC [Example 3.10, 8-(3,4-Dimethoxy-phenyl)-3-methyl-1-(3-methyl-pyridin-2-yl)-1,3-dihydro-imidazo[4,5-c]quinolin-2-one]",516
19,"CNc1ncc(-c2ccc3ncc4c(c3c2)n(-c2ccc(C(C)(C)O)nc2C)c(=O)n4C)cc1F [Example 31.1, 8-(5-Fluoro-6-methylamino-pyridin-3-yl)-1-[6-(1-hydroxy-1-methyl-ethyl)-2-methyl-pyridin-3-yl]-3-methyl-1,3-dihydro-imidazo[4,5-c]quinolin-2-one]",19.3
20,"COc1ccc(-c2ccc3ncc4c(c3c2)n(-c2cnccc2C)c(=O)n4C)cn1 [Example 4.3, 8-(6-Methoxy-pyridin-3-yl)-3-methyl-1-(4-methyl-pyridin-3-yl)-1,3-dihydro-imidazo[4,5-c]quinolin-2-one]",363
21,"Cn1c(=O)n(-c2cccnc2F)c2c3cc(-c4cnc(N)c(C(F)(F)F)c4)ccc3ncc21 [Example 6.2, 8-(6-Amino-5-trifluoromethyl-pyridin-3-yl)-1-(2-fluoro-pyridin-3-yl)-3-methyl-1,3-dihydro-imidazo[4,5-c]quinolin-2-one]",10.2
22,"Cc1nc(N2CCC2)ccc1-n1c(=O)n(C)c2cnc3ccc(-c4cncc(N5CCC5)c4)cc3c21 [Example 23.1, 1-(6-Azetidin-1-yl-2-methyl-pyridin-3-yl)-8-(5-azetidin-1-yl-pyridin-3-yl)-3-methyl-1,3-dihydro-imidazo[4,5-c]quinolin-2-one]",15.1
23,"Cc1cccnc1-n1c(=O)n(C)c2cnc3ccc(-c4cnc(N)c(C(F)(F)F)c4)cc3c21 [Example 3.12, 8-(6-Amino-5-trifluoromethyl-pyridin-3-yl)-3-methyl-1-(3-methyl-pyridin-2-yl)-1,3-dihydro-imidazo[4,5-c]quinolin-2-one]",172
24,"Cc1nc(F)ccc1-n1c(=O)n(C)c2cnc3ccc(-c4cnc(N)c(C(F)(F)F)c4)cc3c21 [Example 7.1, 8-(6-Amino-5-trifluoromethyl-pyridin-3-yl)-1-(6-fluoro-2-methyl-pyridin-3-yl)-3-methyl-1,3-dihydro-imidazo[4,5-c]quinolin-2-one]",13.4
25,"Cn1c(=O)n(-c2cccnc2)c2c3cc(-c4ccc(CO)nc4)ccc3ncc21 [Example 5.1, 8-(6-Hydroxymethyl-pyridin-3-yl)-3-methyl-1-pyridin-3-yl-1,3-dihydro-imidazo[4,5-c]quinolin-2-one]",166
26,"CCOc1ccc(-c2ccc3ncc4c(c3c2)n(-c2cccnc2F)c(=O)n4C)cn1 [Example 6.1, 8-(6-Ethoxy-pyridin-3-yl)-1-(2-fluoro-pyridin-3-yl)-3-methyl-1,3-dihydro-imidazo[4,5-c]quinolin-2-one]",56.2
27,"CN(C)c1ccc(-c2ccc3ncc4c(c3c2)n(-c2cccnc2)c(=O)n4C)cn1 [Example 5.3, 8-(6-Dimethylamino-pyridin-3-yl)-3-methyl-1-pyridin-3-yl-1,3-dihydro-imidazo[4,5-c]quinolin-2-one]",185
28,"Cc1ncccc1-n1c(=O)n(C)c2cnc3ccc(-c4ccc(CO)nc4)cc3c21 [Example 2.6, 8-(6-Hydroxymethyl-pyridin-3-yl)-3-methyl-1-(2-methyl-pyridin-3-yl)-1,3-dihydro-imidazo[4,5-c]quinolin-2-one]",72.9
29,"CNc1ncc(-c2ccc3ncc4c(c3c2)n(-c2ccc(N3CCC(O)C3)nc2C)c(=O)n4C)cn1 (stereo not drawn) [Example 27.2, 1-[6-(3-Hydroxy-pyrrolidin-1-yl)-2-methyl-pyridin-3-yl]-3-methyl-8-(2-methylamino-pyrimidin-5-yl)-1,3-dihydro-imidazo[4,5-c]quinolin-2-one]",11.3
30,"CNc1ncc(-c2ccc3ncc4c(c3c2)n(-c2ccc(N3CC(O)C3)nc2C)c(=O)n4C)cc1C(F)(F)F [Example 29.4, 1-[6-(3-Hydroxy-azetidin-1-yl)-2-methyl-pyridin-3-yl]-3-methyl-8-(6-methylamino-5-trifluoromethyl-pyridin-3-yl)-1,3-dihydro-imidazo[4,5-c]quinolin-2-one]",21.9
